Measurements published in US9944635B2, “Deuterated pyrazino[2,1-a]isoquinoline compounds and methods of treatment using the same” (Concert Pharmaceuticals, Inc., priority 2011, dated 2018).
Like-named read-outs stand apart in the source and are kept apart here.

Key:
[1] = Metabolic stability in human liver microsomes (in vitro half-life); assay type: in vitro ADME
Procedure: Human liver microsomes (20 mg/mL) are obtained from Xenotech, LLC (Lenexa, Kans.). β-nicotinamide adenine dinucleotide phosphate, reduced form (NADPH), magnesium chloride (MgCl2), and dimethyl sulfoxide (DMSO) are purchased from Sigma-Aldrich. 7.5 mM stock solutions of test compounds were prepared in DMSO. The 7.5 mM stock solutions were diluted to 50 μM in acetonitrile (ACN). The 20 mg/mL human liver microsomes were diluted to 0.625 mg/mL in 0.1 M potassium phosphate buffer, pH 7.4, containing 3 mM MgCl2. The diluted microsomes were added to wells of a 96-well deep-well polypropylene plate in triplicate. A 10 μL aliquot of the 50 μM test compound was added to the microsomes and the mixture was pre-warmed for 10 minutes. Reactions were initiated by addition of pre-warmed NADPH solution. The final reaction volume was 0.5 mL and contained 0.5 mg/mL human liver microsomes, 1.0 μM test compound, and 2 mM NADPH in 0.1 M potassium phosphate buffer, pH 7.4, and 3 mM MgCl2. The reaction mixtures were incubated at 37° C., and 50 μL aliquots were removed at 0, 5, 10, 20, and 30 minutes and added to shallow-well 96-well plates which contained 50 μL of ice-cold ACN with internal standard to stop the reactions. The plates were stored at 4° C. for 20 minutes after which 100 μL of water was added to the wells of the plate before centrifugation to pellet precipitated proteins. Supernatants were transferred to another 96-well plate and analyzed for amounts of parent remaining by LC-MS/MS using an Applied Bio-systems API 4000 mass spectrometer. […] Testing was done in triplicate.

schistosoma = details: enantiomer comparison, Meyer et al. 2009; cited from earlier work
[2] = FDA label for BILTRICIDE; cited from earlier work
[3] = pH 7.4, Table 3, 0.5 mg/mL HLM, 1.0 μM test compound, 2 mM NADPH, 37° C., read-out: Half-life (t½) Run No. 9
[4] = pH 7.4, Table 3, 0.5 mg/mL HLM, 1.0 μM test compound, 2 mM NADPH, 37° C., read-out: Half-life (t½) Run No. 10
[5] = pH 7.4, Table 3, 0.5 mg/mL HLM, 1.0 μM test compound, 2 mM NADPH, 37° C., read-out: Half-life (t½) Run No. 11
[6] = pH 7.4, Table 3, 0.5 mg/mL HLM, 1.0 μM test compound, 2 mM NADPH, 37° C., read-out: Half-life (t½) Run No. 12
[7] = pH 7.4, Table 3, average of runs 9-12, read-out: Half-life (t½) AVE ± SD
[8] = pH 7.4, Table 1, 0.5 mg/mL HLM, 1.0 μM test compound, 2 mM NADPH, 37° C., read-out: t1/2 Run No. 1
[9] = pH 7.4, Table 1, 0.5 mg/mL HLM, 1.0 μM test compound, 2 mM NADPH, 37° C., read-out: t1/2 Run No. 2
[10] = pH 7.4, Table 1, 0.5 mg/mL HLM, 1.0 μM test compound, 2 mM NADPH, 37° C., read-out: t1/2 Run No. 3
[11] = pH 7.4, Table 1, 0.5 mg/mL HLM, 1.0 μM test compound, 2 mM NADPH, 37° C., read-out: t1/2 Run No. 4
[12] = pH 7.4, Table 1, average of runs 1-4, read-out: t1/2 AVE ± SD
[13] = pH 7.4, Table 2, 0.5 mg/mL HLM, 1.0 μM test compound, 2 mM NADPH, 37° C., read-out: t1/2 Run No. 5
[14] = pH 7.4, Table 2, 0.5 mg/mL HLM, 1.0 μM test compound, 2 mM NADPH, 37° C., read-out: t1/2 Run No. 6
[15] = pH 7.4, Table 2, 0.5 mg/mL HLM, 1.0 μM test compound, 2 mM NADPH, 37° C., read-out: t1/2 Run No. 8
[16] = pH 7.4, Table 2, average of runs 5-8, read-out: t1/2 AVE ± SD
[17] = pH 7.4, Table 2, 0.5 mg/mL HLM, 1.0 μM test compound, 2 mM NADPH, 37° C., read-out: t1/2 Run No. 7

Structure (SMILES)	half-life at 1 μM [1, 3] [min]	half-life at 1 μM [1, 4] [min]	half-life at 1 μM [1, 5] [min]	half-life at 1 μM [1, 6] [min]	half-life at 1 μM [1, 7] [min]	half-life at 1 μM [1, 11] [min]	half-life at 1 μM [1, 12] [min]	half-life at 1 μM [1, 13] [min]	half-life at 1 μM [1, 14] [min]	half-life at 1 μM [1, 15] [min]	half-life at 1 μM [1, 16] [min]	half-life at 1 μM [1, 17] [min]	further results
[2H]C1([2H])CCC(C(=O)N2CC(=O)N3CCc4ccccc4[C@@H]3C2)CC1 [101(a), (R)-2-(4,4-d2-Cyclohexanecarbonyl)-2,3,6,7-tetrahydro-1H-pyrazino[2,1-a]isoquinolin-4(11bH)-one]	48.9	46.7	56.3	45.8	49.4 ± 4.8								
[2H]C1([2H])C([2H])([2H])C([2H])([2H])C([2H])(C(=O)N2CC(=O)N3CCc4ccccc4[C@@H]3C2)C([2H])([2H])C1([2H])[2H] [102(a), (R)-2-(Cyclohexane-d11-carbonyl)-2,3,6,7-tetrahydro-1H-pyrazino[2,1-a]isoquinolin-4(11bH)-one]	57.4	53.6	50.1	46	51.8 ± 4.9								
[2H]C1([2H])C(C(=O)N2CC(=O)N3CCc4ccccc4[C@@H]3C2)C([2H])([2H])C([2H])([2H])C([2H])([2H])C1([2H])[2H] [103(a), (R)-2-(2,2,3,3,4,4,5,5,6,6-d10-Cyclohexanecarbonyl)-2,3,6,7-tetrahydro-1H-pyrazino[2,1-a]isoquinolin-4(11bH)-one]	52.7		50	55.5	50 ± 5.9								
O=C(C1CCCCC1)N1CC(=O)N2CCc3ccccc3[C@@H]2C1 [(R) Praziquantel]													schistosomicidal activity (schistosoma): has schistosomicidal activity
[2H]C1([2H])CCC(C(=O)N2CC(=O)N3CCc4ccccc4C3C2)CC1 (centres unmarked) [Compound 101, 2-(Cyclohexane-4,4-d2-carbonyl)-2,3,6,7-tetrahydro-1H-pyrazino[2,1-a]isoquinolin-4(11bH)-one]						52.7	46.7 ± 4.4	56.7	53.9	60.1	52.2 ± 9.7		half-life at 1 μM [1, 8]: 47.4 min; half-life at 1 μM [1, 9]: 43.6 min; half-life at 1 μM [1, 10]: 43.1 min
[2H]C1([2H])C([2H])([2H])C([2H])([2H])C([2H])(C(=O)N2CC(=O)N3CCc4ccccc4C3C2)C([2H])([2H])C1([2H])[2H] (centres unmarked) [Compound 102, 2-(Cyclohexane-d11-carbonyl)-2,3,6,7-tetrahydro-1H-pyrazino[2,1-a]isoquinolin-4(11bH)-one]						66.2	55.7 ± 8.7	54.8	50.6	52.4	50.7 ± 4.2	44.9	half-life at 1 μM [1, 8]: 56.4 min; half-life at 1 μM [1, 9]: 55.4 min; half-life at 1 μM [1, 10]: 44.8 min
O=C(C1CCCCC1)N1CC(=O)N2CCc3ccccc3C2C1 (centres unmarked) [Praziquantel, 2-(cyclohexylcarbonyl)-1,2,3,6,7,11b-hexahydro-4H-pyrazino[2,1-a]isoquinolin-4-one, reference compound]	29.5	31.5	35.1	30.5	31.7 ± 2.5	44.7	38.9 ± 3.9	41.2	43.8	36.9		30.6	portion of a dose excreted in the kidneys [2]: Approximately 80%; portion of the renally excreted dose in the form of metabolites [2]: > 99%

More lines, main results first:

half-life at 1 μM [1, 3] [min]	half-life at 1 μM [1, 4] [min]	half-life at 1 μM [1, 5] [min]	half-life at 1 μM [1, 6] [min]	half-life at 1 μM [1, 7] [min]	half-life at 1 μM [1, 11] [min]	half-life at 1 μM [1, 12] [min]	half-life at 1 μM [1, 13] [min]	half-life at 1 μM [1, 14] [min]	half-life at 1 μM [1, 15] [min]	half-life at 1 μM [1, 16] [min]	half-life at 1 μM [1, 17] [min]	Structure (SMILES)	further results
39.5	38.7	43.2	55.4	44.2 ± 7.7								[2H]C1([2H])CC(C(=O)N2CC(=O)N3CCc4ccccc4[C@@H]3C2)CC([2H])([2H])C1([2H])[2H] [109(a), (R)-2-(3,3,4,4,5,5-d6-Cyclohexanecarbonyl)-2,3,6,7-tetrahydro-1H-pyrazino[2,1-a]isoquinolin-4(11bH)-one]	
							65.1	51.6	69.3	61.7 ± 7.6	60.6	[2H]C1([2H])C(C(=O)N2CC(=O)N3CCc4ccccc4C3C2)C([2H])([2H])C([2H])([2H])C([2H])([2H])C1([2H])[2H] (centres unmarked) [Compound 103, 2-(Cyclohexane-2,2,3,3,4,4,5,5,6,6-d10-carbonyl)-2,3,6,7-tetrahydro-1H-pyrazino[2,1-a]isoquinolin-4(11bH)-one]	
							55.7	53.5	51.2	52.2 ± 4.6	46.4	[2H]C1([2H])CC(C(=O)N2CC(=O)N3CCc4ccccc4C3C2)CC([2H])([2H])C1([2H])[2H] (centres unmarked) [Compound 109, 2-(Cyclohexane-3,3,4,4,5,5,-d6-carbonyl)-2,3,6,7-tetrahydro-1H-pyrazino[2,1-a]isoquinolin-4(11bH)-one]	
